Measurements published in EP0732934B1, “LONG-ACTING INJECTION SUSPENSIONS OF AN LHRH ANALOGUE AND A PROCESS FOR THEIR PREPARATION” (Zentaris GmbH, priority 1993, dated 2005).
Counter-ions that a name gives are not always drawn.

What was measured:
[1] = in vivo, po; cited from earlier work
[2] = compared to its embonic acid salt, subcutaneous injection in mice; cited from earlier work
[3] = tested on: testosterone plasma levels; test: Duration of action in the animal: testosterone suppression after subcutaneous application; type: in vivo; details: male rats
Procedure: Suspensions of the precipitates were applied subcutaneously to male rats in the dose 0.5 mg cetrorelix/kg body weight and determined after application as a measure of the effect of the peptide on testosterone plasma levels. The effect of the cetrorelix consists in reduction of the testosterone level. As a reference an injection suspension was tested as well, that prepared according to DE 4023134 A1 and which contained the peptide embonate in poly(lactic acid, glycolic acid) copolymers. The duration of action of a non-sustained release dosage form of cetrorelix was determined via examination of the aqueous solution of cetrorelix acetate.

## CN(C)CCCN1c2ccccc2CCc2ccccc21 [imipramine HCl]
[1]
  difference to imipramine embonate: no difference

## CCc1nc(N)nc(N)c1-c1ccc(Cl)cc1 [pyrimethamine]
[2]
  pharmacokinetic behaviour, plasma level course and AUC: no difference

## Ac-DNal-DpCl-Phe-DPal-Ser-Tyr-DCit-Leu-Arg-Pro-D-Ala-NH2 [cetrorelix acetate]
[3]; 0.5 mg cetrorelix/kg body weight subcutaneously
  effect of testosterone suppression achieved after the application: 6 h
[3]; 0.5 mg cetrorelix/kg subcutaneously, values for subgroups of animals (acetate: two animals, three further animals; embonate: one animal)
  duration of testosterone suppression under 1 ng/ml: 24 h and up to 48 h
